In EP0076430A1, “Compositions having antimicrobial activity” (MEDEA RESEARCH S.r.l., priority 1981, dated 1983):

What was measured:
E. coli = assay: Bactericide activity at different contact times; assay type: cell-based; set-up: key to Bactericide action (growth / no growth): + = growth; - = no growth; settings: 100 p.p.m.
Experimental: (§1) Different bacterial species isolated from patients are employed.
(§2) Compounds AB5 and AB6 are dissolved in ethanol (ethyl alcohol 95°, C. Erba) and all the subsequent dilutions performed in distilled water. The chlorhexidine is diluted from the commercial product already dissolved in distilled water.
(§3) It is assessed through Dinatech apparatus with "Inoculum 96" head.
(§4) Chemical compounds at established concentra tions are placed in amount of 1 ml in the con tainers, the bacterial inoculum is then added in amount of 0.1 ml (24 hrs culture) and at pre-established times (3,5,10,30,60 and 120 mi nutes), through the head, the mixture compound/ disinfectant agent is transferred in solid medium (agar-heart-brain medium). After incubation at 35°C for 24 hours, the reading is carried out. The tests are repeated in presence of human serum at the concentration of 10%.

Indole-positive Proteus [1] = assay: Bactericide activity at different contact times; assay type: cell-based; set-up: key to Bactericide action (growth / no growth): + = growth; - = no growth; settings: 100 p.p.m.
Experimental: as §1, §2, §3, §4

Serratia marcescens [2] = assay: Bactericide activity at different contact times; assay type: cell-based; set-up: key to Bactericide action (growth / no growth): + = growth; - = no growth; settings: 100 p.p.m.
Experimental: as §1, §2, §3, §4

Pseudomonas aeruginosa [3] = assay: Minimum inhibitory concentration (MIC), broth dilution; assay type: cell-based; settings: 24 h
Experimental: as §1, §2
(§5) The broth dilution is employed to assess MIC values for all strains. Sterile microtiter plates with U bottom with 96 wells are employed. 0.1 Ml of liquid medium (tryptose Roche broth) are put in each well, the plates are kept at -20° and, before use, at room temperature.
(§6) The disinfectant agent is put in the wells of the row 2 at a concentration of 4000 mcg/ml (real 2000 mcg/ml) and then with a 100 µl micro- pipette dilutions are performed from row 2 to row 11.
(§7) The row 1 is the control of the medium and the row 12 is the control for the fertility of the medium itself.
(§8) After having performed the dilutions, 0.01 ml of a 24 hrs bacterial broth culture (previously diluted at 10^-4 for Gram-negative strains and 10-2 for Gram-positive ones) are placed in all wells, from the rows 2 to 12. After the inoculation, the plate is hermetical ly sealed with adhesive transparent band and an hole is done with a needle. The plates are kept at 35° for 24 hours and a macroscopic reading is carried out; in case of non uniform reading, taking place only for chlorhexidine, the cultures from the wells are plated on agar-heart-brain medium (Sclavo) through Dinatech apparatus (head "Inoculum 96") and the reading of the growth is carried out in the following 24 hours.

Bacillaceae = assay: as above; assay type: cell-based; settings: 24 h; strain 1722
Experimental: as §1, §2, §5, §6, §7, §8

Enterobacter = assay: as above; assay type: cell-based; settings: 24 h, strain 2643
Experimental: as §1, §2, §5, §6, §7, §8

Indole-positive Proteus [4] = assay: as above; assay type: cell-based; settings: 24 h
Experimental: as §1, §2, §5, §6, §7, §8

Serratia marcescens [5] = assay: as above; assay type: cell-based; settings: 24 h, strain 1814
Experimental: as §1, §2, §5, §6, §7, §8

E.coli = assay: as above; assay type: cell-based; settings: Escherichia coli, 24 h
Experimental: as §1, §2, §5, §6, §7, §8

Salmonella sp. [6] = assay: as above; assay type: cell-based; settings: 24 h, strain 2482
Experimental: as §1, §2, §5, §6, §7, §8

Staph. aureus [7] = assay: as above; assay type: cell-based; settings: Staphylococcus aureus, 24 h; strain 2672
Experimental: as §1, §2, §5, §6, §7, §8

[8] = Toxicity, LD50 by intraperitoneal route; settings: mouse, in vivo, ip, mice
Pseudomonas aeruginosa [9] = assay: Bactericide activity at different contact times; assay type: cell-based; set-up: key to Bactericide action (growth / no growth) / Bactericide activity (growth / no growth), serum interference test: + = growth; - = no growth; settings: 100 p.p.m.
Experimental: as §1, §2, §3, §4

B. subtilis = assay: Bactericide activity at different contact times; assay type: cell-based; set-up: key: + = growth; - = no growth; settings: 100 p.p.m.
Experimental: as §1, §2, §3, §4

Salmonella sp. [10] = assay: Bactericide activity at different contact times; assay type: cell-based; set-up: key: + = growth; - = no growth; settings: 100 p.p.m.
Experimental: as §1, §2, §3, §4

Staph. aureus [11] = assay: Bactericide activity at different contact times; assay type: cell-based; set-up: key: + = growth; - = no growth; settings: 100 p.p.m.
Experimental: as §1, §2, §3, §4

NC(=NCl)c1ccccc1 [AB5]
250 µg/mL: MIC (Pseudomonas aeruginosa [3]; strain 2084) | MIC (Pseudomonas aeruginosa [3]; strain 2488) | MIC (Pseudomonas aeruginosa [3]; strain 2509) | MIC (Enterobacter) | MIC (Indole-positive Proteus [4]; strain 2075) | MIC (Indole-positive Proteus [4]; strain 2410) | MIC (E.coli; strain 2094) | MIC (E.coli; strain 2096) | MIC (E.coli; strain 2117) | MIC (Salmonella sp. [6]) | MIC (Staph. aureus [7])
31.2 µg/mL: MIC (Serratia marcescens [5])
-: Bactericide action (growth / no growth) (E. coli; contact time 3 min) | Bactericide action (growth / no growth) (E. coli; contact time 5 min) | Bactericide action (growth / no growth) (E. coli; contact time 10 min) | Bactericide action (growth / no growth) (E. coli; contact time 30 min) | Bactericide action (growth / no growth) (E. coli; contact time 60 min) | Bactericide action (growth / no growth) (E. coli; contact time 120 min) | Bactericide action (growth / no growth) (Indole-positive Proteus [1]; contact time 10 min) | Bactericide action (growth / no growth) (Indole-positive Proteus [1]; contact time 30 min) | Bactericide action (growth / no growth) (Indole-positive Proteus [1]; contact time 60 min) | Bactericide action (growth / no growth) (Indole-positive Proteus [1]; contact time 120 min) | Bactericide action (growth / no growth) (Serratia marcescens [2]; contact time 3 min) | Bactericide action (growth / no growth) (Serratia marcescens [2]; contact time 5 min) | Bactericide action (growth / no growth) (Serratia marcescens [2]; contact time 10 min) | Bactericide action (growth / no growth) (Serratia marcescens [2]; contact time 30 min) | Bactericide action (growth / no growth) (Serratia marcescens [2]; contact time 60 min) | Bactericide action (growth / no growth) (Serratia marcescens [2]; contact time 120 min) | Bactericide action (growth / no growth) (Pseudomonas aeruginosa [9]; contact time 120 min) | Bactericide action (growth / no growth) (B. subtilis; contact time 3 min) | Bactericide action (growth / no growth) (B. subtilis; contact time 5 min) | Bactericide action (growth / no growth) (B. subtilis; contact time 10 min) | Bactericide action (growth / no growth) (B. subtilis; contact time 30 min) | Bactericide action (growth / no growth) (B. subtilis; contact time 60 min) | Bactericide action (growth / no growth) (B. subtilis; contact time 120 min) | Bactericide action (growth / no growth) (Salmonella sp. [10]; contact time 10 min) | Bactericide action (growth / no growth) (Salmonella sp. [10]; contact time 30 min) | Bactericide action (growth / no growth) (Salmonella sp. [10]; contact time 60 min) | Bactericide action (growth / no growth) (Salmonella sp. [10]; contact time 120 min) | Bactericide action (growth / no growth) (Staph. aureus [11]; contact time 60 min) | Bactericide action (growth / no growth) (Staph. aureus [11]; contact time 120 min)
125 µg/mL: MIC (Indole-positive Proteus [4]; strain 2083)
15.6 µg/mL: MIC (Bacillaceae)
85 mg/kg: LD50 [8]
60 to 120 min: contact time for total bactericide activity (Indole-positive Proteus [1]) | contact time for total bactericide activity (Pseudomonas aeruginosa [9])
500 µg/mL: MIC (Pseudomonas aeruginosa [3]; strain 2458) | MIC (Pseudomonas aeruginosa [3]; strain 2508) | MIC (Pseudomonas aeruginosa [3]; strain 2670) | MIC (Indole-positive Proteus [4]; strain 2105) | MIC (Indole-positive Proteus [4]; strain 2447) | MIC (Indole-positive Proteus [4]; strain 2674) | MIC (E.coli; strain 2456) | MIC (E.coli; strain 2568)
≤ 3 min: contact time for total bactericide activity (E. coli)
+: Bactericide action (growth / no growth) (Indole-positive Proteus [1]; contact time 3 min) | Bactericide action (growth / no growth) (Indole-positive Proteus [1]; contact time 5 min) | Bactericide action (growth / no growth) (Pseudomonas aeruginosa [9]; contact time 3 min) | Bactericide action (growth / no growth) (Pseudomonas aeruginosa [9]; contact time 5 min) | Bactericide action (growth / no growth) (Pseudomonas aeruginosa [9]; contact time 10 min) | Bactericide action (growth / no growth) (Pseudomonas aeruginosa [9]; contact time 30 min) | Bactericide action (growth / no growth) (Pseudomonas aeruginosa [9]; contact time 60 min) | Bactericide action (growth / no growth) (Salmonella sp. [10]; contact time 3 min) | Bactericide action (growth / no growth) (Salmonella sp. [10]; contact time 5 min) | Bactericide action (growth / no growth) (Staph. aureus [11]; contact time 3 min) | Bactericide action (growth / no growth) (Staph. aureus [11]; contact time 5 min) | Bactericide action (growth / no growth) (Staph. aureus [11]; contact time 10 min) | Bactericide action (growth / no growth) (Staph. aureus [11]; contact time 30 min)
